In patent publication US20220340875A1, “METHODS OF CULTURING AND/OR EXPANDING STEM CELLS AND/OR LINEAGE COMMITTED PROGENITOR CELLS USING AMIDO COMPOUNDS” (IDEAYA BIOSCIENCES, INC., priority 2018, published 2022):
pIC50: −log10 of the molar value.

The compounds below were run against T1, hAhR (Homo sapiens, UniProt P35869) (assay: AhR DRE-luciferase reporter transcriptional assay, antagonist mode (TCDD-induced)). Conditions: HEPG2 DRE-Luc cells, 3 nM TCDD, 24 hour incubation, relative IC50.
T1 construct: Stably integrated DRE-luciferase cell lines were generated by transducing the both cell lines with Cignal XRE luciferase reporter (Qiagen) lentiviral particles; endogenous in cells
T1 sequence (P35869 11-848): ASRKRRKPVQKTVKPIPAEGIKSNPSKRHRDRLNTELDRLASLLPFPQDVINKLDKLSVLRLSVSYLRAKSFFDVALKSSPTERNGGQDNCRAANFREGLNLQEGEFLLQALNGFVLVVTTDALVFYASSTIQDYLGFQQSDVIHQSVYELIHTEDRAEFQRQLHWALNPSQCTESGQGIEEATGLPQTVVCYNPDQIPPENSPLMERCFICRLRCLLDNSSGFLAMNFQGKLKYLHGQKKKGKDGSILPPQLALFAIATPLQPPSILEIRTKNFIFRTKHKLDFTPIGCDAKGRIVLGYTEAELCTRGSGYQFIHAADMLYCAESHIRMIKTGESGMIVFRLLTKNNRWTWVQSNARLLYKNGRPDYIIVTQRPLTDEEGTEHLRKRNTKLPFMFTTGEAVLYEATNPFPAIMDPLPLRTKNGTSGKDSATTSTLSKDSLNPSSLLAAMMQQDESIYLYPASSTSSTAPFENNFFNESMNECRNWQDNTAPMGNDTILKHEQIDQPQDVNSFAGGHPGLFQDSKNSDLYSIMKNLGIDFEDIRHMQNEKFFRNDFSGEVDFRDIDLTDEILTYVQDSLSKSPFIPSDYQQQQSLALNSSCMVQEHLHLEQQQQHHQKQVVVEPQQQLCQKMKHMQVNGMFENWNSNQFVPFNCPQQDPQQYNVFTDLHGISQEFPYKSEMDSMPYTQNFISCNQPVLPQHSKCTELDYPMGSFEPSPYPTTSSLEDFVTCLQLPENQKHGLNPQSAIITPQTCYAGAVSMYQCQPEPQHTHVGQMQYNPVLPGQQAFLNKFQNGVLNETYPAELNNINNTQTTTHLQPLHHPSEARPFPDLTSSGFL
Type: cell-based
In short: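 HepG2 cells carrying a stably integrated DRE-luciferase reporter, in OptiMEM with 0.5% FBS; semi-log compound doses added with 3 nM TCDD, 24 h incubation, firefly luciferase read-out. Percent maximal activity normalised between vehicle ± TCDD; relative IC50 taken as half-reduction between curve plateaus.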
Cc1cc(-c2ncc3nc(C(F)(F)F)cc(C)c3n2)ccc1N(C)C(=O)c1ccnn1CC(C)(C)O [Example 224, 1-(2-hydroxy-2-methylpropyl)-N-methyl-N-(2-methyl-4-(8-methyl-6-(trifluoromethyl)pyrido[3,2-d]pyrimidin-2-yl)phenyl)-1H-pyrazole-5-carboxamide] showed a pIC50 of 6.30 to 6.70.
C#Cc1ccc2nc(-c3ccc(NC(=O)c4ccnn4C)c(C)c3)ccc2c1 [Example 072, N-(4-(6-ethynylquinolin-2-yl)-2-methylphenyl)-1-methyl-1H-pyrazole-5-carboxamide] was tested, and the pIC50 was 6.30 to 6.70.
Cc1cc(-c2ccc3cc(N4CCOCC4)ccc3n2)ccc1NC(=O)c1ccnn1C [Example 071, 1-methyl-N-(2-methyl-4-(6-morpholinoquinolin-2-yl)phenyl)-1H-pyrazole-5-carboxamide] was tested, and the pIC50 was 6.30 to 6.70.
Cc1cc(-c2ccc3cc(F)ccc3n2)ccc1NC(=O)c1cocn1 [Example 036, N-(4-(6-fluoroquinolin-2-yl)-2-methylphenyl)oxazole-4-carboxamide] showed a pIC50 of 6.00 to 6.30.
Work on Cc1cc(-c2ccc3cc(F)ccc3n2)ccc1NC(=O)c1cncnc1 [Example 030, N-(4-(6-fluoroquinolin-2-yl)-2-methylphenyl)pyrimidine-5-carboxamide] yielded a pIC50 of 5.00 to 6.00.
In the case of Cc1cc(-c2ncc3cc(C(F)(F)F)ccc3n2)ccc1N(C)C(=O)c1ccnn1C [Example 140, N,1-Dimethyl-N-(2-methyl-4-(6-(trifluoromethyl)quinazolin-2-yl)phenyl)-1H-pyrazole-5-carboxamide], the pIC50 was > 6.70.
Cc1cc(-c2ccc3cncc(C)c3n2)ccc1NC(=O)c1ccnn1C [Example 059, 1-methyl-N-(2-methyl-4-(8-methyl-1,6-naphthyridin-2-yl)phenyl)-1H-pyrazole-5-carboxamide] was tested, and the pIC50 was 6.30 to 6.70.
For Cc1cc(-c2ncc3cc(C(F)(F)F)ccc3n2)ccc1N(C)C(=O)c1ccncc1 [Example 116, N-methyl-N-(2-methyl-4-(6-(trifluoromethyl)quinazolin-2-yl)phenyl)isonicotinamide], the pIC50 was > 6.70.
For Cc1cc(-c2ccc3cnccc3n2)ccc1NC(=O)c1ccnn1C [Example 013, 1-methyl-N-(2-methyl-4-(1,6-naphthyridin-2-yl)phenyl)-1H-pyrazole-5-carboxamide], the pIC50 was 5.00 to 6.00.
With Cc1cc(-c2ccc3nc(C(F)(F)F)ncc3n2)ccc1NC(=O)c1ccnn1C [Example 139, 1-methyl-N-(2-methyl-4-(2-(trifluoromethyl)pyrido[3,2-d]pyrimidin-6-yl)phenyl)-1H-pyrazole-5-carboxamide] the pIC50 was 6.00 to 6.30.
In the case of Cc1cc(-c2ccc3cccc(C)c3n2)ccc1NC(=O)OC(C)(C)C [Example 017, tert-butyl (2-methyl-4-(8-methylquinolin-2-yl)phenyl)carbamate], the pIC50 was 5.00 to 6.00.
With Cc1cc(-c2ncc3nc(C(F)(F)F)cc(C)c3n2)ccc1NC(=O)c1ccnn1CCO [Example 172, 1-(2-hydroxyethyl)-N-[2-methyl-4-[8-methyl-6-(trifluoromethyl)pyrido-[3,2-d]pyrimidin-2-yl]phenyl]-1H-pyrazole-5-carboxamide] the pIC50 was > 6.70.
With Cc1cc(C(=O)Nc2ccc(-c3ncc4nc(OC(F)(F)F)cc(C)c4n3)cc2C)ccn1 [Example 160, 2-methyl-N-(2-methyl-4-(8-methyl-6-(trifluoromethoxy)pyrido[3,2-d]-pyrimidin-2-yl)phenyl)isonicotinamide] the pIC50 was > 6.70.
For Cc1cc(C(=O)N(C)c2ccc(-c3ncc4cc(C(F)(F)F)ccc4n3)cc2C)ccn1 [Example 120, N,2-dimethyl-N-(2-methyl-4-(6-(trifluoromethyl)quinazolin-2-yl)phenyl)isonicotinamide], the pIC50 was > 6.70.
Compound Cc1cc(-c2ccc3cc(C(F)(F)F)ccc3n2)ccc1NC(=O)C(F)(F)F [Example 080, 2,2,2-trifluoro-N-(2-methyl-4-(6-(trifluoromethyl)quinolin-2-yl)phenyl)acetamide] has a pIC50 of 5.00 to 6.00.
For Cc1cc(-c2ccc3cc(F)ccc3n2)cnc1NC(=O)c1ccnn1C [Example 042, N-(5-(6-fluoroquinolin-2-yl)-3-methylpyridin-2-yl)-1-methyl-1H-pyrazole-5-carboxamide], the pIC50 was 6.00 to 6.30.
For CN(C(=O)c1ccnn1C)c1ccc(-c2ncc3cc(C(F)(F)F)ccc3n2)cc1 [Example 218, N,1-dimethyl-N-(4-(6-(trifluoromethyl)quinazolin-2-yl)phenyl)-1H-pyrazole-5-carboxamide], the pIC50 was > 6.70.
In the case of Cc1cc(-c2ccc3c(C(F)(F)F)cccc3n2)ccc1NC(=O)c1ccnn1C [Example 057, 1-methyl-N-(2-methyl-4-(5-(trifluoromethyl)quinolin-2-yl)phenyl)-1H-pyrazole-5-carboxamide], the pIC50 was 6.30 to 6.70.
With Cc1cc(-c2ncc3cc(C(F)(F)F)ccc3n2)ccc1NC(=O)c1ncncc1C [Example 123, 5-methyl-N-(2-methyl-4-(6-(trifluoromethyl)quinazolin-2-yl)phenyl)pyrimidine-4-carboxamide] the pIC50 was 6.00 to 6.30.
Cc1c(-c2ncc3nc(C(F)(F)F)cc(C)c3n2)ccc(N(C)C(=O)c2ccnn2C)c1F [Example 177, N-(2-fluoro-3-methyl-4-(8-methyl-6-(trifluoromethyl)pyrido[3,2-d]pyrimidin-2-yl)phenyl)-N,1-dimethyl-1H-pyrazole-5-carboxamide] was tested, and the pIC50 was > 6.70.
Cc1cc(-c2ncc3nc(C(F)(F)F)cc(C)c3n2)ccc1N(C)C(=O)c1cc(C(=O)O)nn1CC(N)=O [Example 195, 1-(2-amino-2-oxoethyl)-5-(methyl(2-methyl-4-(8-methyl-6-(trifluoro-methyl)pyrido[3,2-d]pyrimidin-2-yl)phenyl)carbamoyl)-1H-pyrazole-3-carboxylic acid] was tested, and the pIC50 was 5.00 to 6.00.
For Cc1cc(-c2ncc3cc(C(F)(F)F)ccc3n2)ccc1NC(=O)c1ccncc1 [Example 115, N-(2-methyl-4-(6-(trifluoromethyl)quinazolin-2-yl)phenyl)isonicotinamide], the pIC50 was > 6.70.
Cc1cc(-c2ccc3cncc(Cl)c3n2)ccc1NC(=O)c1ccnn1C [Example 104, N-(4-(8-chloro-1,6-naphthyridin-2-yl)-2-methylphenyl)-1-methyl-1H-pyrazole-5-carboxamide] was tested, and the pIC50 was > 6.70.
Cc1cc(-c2nc3cc(C(F)(F)F)ccc3s2)ccc1NC(=O)c1ccnn1C [Example 100, 1-methyl-N-(2-methyl-4-(5-(trifluoromethyl)benzo[d]thiazol-2-yl)phenyl)-1H-pyrazole-5-carboxamide] gave a pIC50 of 6.30 to 6.70.
In the case of Cc1cc(C(=O)Nc2ccc(-c3ncc4cc(C(F)(F)F)ccc4n3)cc2C)ccn1 [Example 119, 2-methyl-N-(2-methyl-4-(6-(trifluoromethyl)quinazolin-2-yl)phenyl)isonicotinamide], the pIC50 was > 6.70.
In the case of Cc1cc(-c2ccc3cc(F)ccc3n2)ccc1NC(=O)c1cn(C)cn1 [Example 035, N-(4-(6-fluoroquinolin-2-yl)-2-methylphenyl)-1-methyl-1H-imidazole-4-carboxamide], the pIC50 was 5.00 to 6.00.
Cc1cc(-c2ncc3nc(C(F)(F)F)cc(C)c3n2)ccc1N(C)C(=O)c1ccnn1CCOP(=O)(O)O [Example 194, 2-[5-[methyl([2-methyl-4-[8-methyl-6-(trifluoromethyl)pyrido[3,2-d]pyrimidin-2-yl]phenyl])carbamoyl]-1H-pyrazol-1-yl]ethyl disodium phosphate] showed a pIC50 of 5.00 to 6.00.
With Cc1cc(-c2ccc3cc(F)cc(Br)c3n2)ccc1NC(=O)c1ccnn1C [Example 051, N-(4-(8-bromo-6-fluoroquinolin-2-yl)-2-methylphenyl)-1-methyl-1H-pyrazole-5-carboxamide] the pIC50 was > 6.70.
Cn1nccc1C(=O)Nc1ccc(-c2ncc3cc(C(F)(F)F)ccc3n2)cc1 [Example 220, 1-methyl-N-(4-(6-(trifluoromethyl)quinazolin-2-yl)phenyl)-1H-pyrazole-5-carboxamide] was tested, and the pIC50 was 5.00 to 6.00.
Cc1cc(C(=O)N(C)c2ccc(-c3ncc4nc(OC(F)(F)F)cc(C)c4n3)cc2C)ccn1 [Example 161, N,2-dimethyl-N-(2-methyl-4-(8-methyl-6-(trifluoromethoxy)pyrido[3,2-d]pyrimidin-2-yl)phenyl)isonicotinamide] was tested, and the pIC50 was 6.30 to 6.70.
Cc1cc(-c2ccc3cc(F)ccc3n2)ccc1NC(=O)c1cnccn1 [Example 032, N-(4-(6-fluoroquinolin-2-yl)-2-methylphenyl)pyrazine-2-carboxamide] gave a pIC50 of 6.00 to 6.30.
For Cc1c(N(C)C(=O)c2ccnn2C)ccc(-c2ncc3nc(C(F)(F)F)cc(C)c3n2)c1F [Example 175, N-(3-fluoro-2-methyl-4-(8-methyl-6-(trifluoromethyl)pyrido[3,2-d]pyrimidin-2-yl)phenyl)-N,1-dimethyl-1H-pyrazole-5-carboxamide], the pIC50 was > 6.70.
